Entries after “also recorded” stand apart in the source; their conditions may differ.
Experiments:
R6/2 mice [1] = test: Chronic oral dosing in the R6/2 mouse model, overall disease progression; type: in vivo; conditions: chronic oral administration, 10 or 30 mg/kg BID p.o. from 4 weeks
Experimental: All animal experiments were carried out according to the National Institute of Health (NIH) guidelines for the care and use of laboratory animals, and approved by the National Laboratory Animal Board, Finland. 60 male and female R6/2 TG mice (R6/2J CAG 120 and 12 male and female wild-type littermate control mice were bred at National Animal Facility Center, Kuopio, Finland.
Mice were housed in groups of 4 and separated by sexes. In each cage, one wild-type mouse of the same sex, but different litter, was included in an attempt to provide normal social stimulation. Mice were allowed to acclimate to the experimental room for at least one hour prior to the beginning of any experiment. Mice were transported from the colony room to experimental rooms in their home cages. Experimentation was conducted in a blinded manner. Tail samples were taken at the end of the study for verification of genotypes and CAG sizes of individual mice.
(§1) All values are presented as mean ± Standard Error of Mean (SEM), and differences are considered to be statistically significant at the p < 0.05 level. Statistical analysis was performed using StatsDirect statistical software. Differences between group means were analyzed by 1-way-ANOVA followed by Dunnett’s test (comparison to the control (=vehicle treated TG mice) group). The acquisition of the Cued two-choice swim test was analyzed using Fisher’s exact test.

PDE9 = tested on: PDE9; set-up: method as in PMID 9216839, PMID 17697115, PMID 10618442, PMID 8961086, PMID 7581878; conditions: ref [12], [23], [25], [27], [28], read-out: previously reported potencies; cited from earlier work
aggregated HTT = test: Seprion ligand based ELISA of aggregate load; type: in vivo, mouse; conditions: chronic administration; 13 weeks of age; lower dose group study
Source text: Aggregates were captured in Seprion ligand coated plates (Microsens) and detected using the S830 sheep polyclonal or MW8 mouse monoclonal antibodies as described.

PDE2 = tested on: PDE2; set-up: method as in PMID 9216839, PMID 17697115, PMID 10618442, PMID 8961086, PMID 7581878; conditions: ref [12], [23], [25], [27], [28], read-out: previously reported potencies; cited from earlier work
PDE5 = tested on: PDE5; set-up: method as in PMID 9216839, PMID 17697115, PMID 8961086, PMID 7581878; conditions: [12] uses full length PDE5 derived from bovine lung, ref [12], [23], [27], [28], read-out: reported IC50; cited from earlier work
R6/2 mice [2] = test: Survival study in R6/2 mice; type: in vivo, mouse; conditions: for Mean (±SEM) Survival Time / Medial Survival Time: R6/2 mice
disease-relevant genes = test: Taqman-qPCR of disease-relevant genes; type: in vivo, mouse; conditions: chronic administration; 13 weeks of age; lower dose group study
Experimental: Total RNA was extracted with the mini-RNA kit accordingly to manufacturer instructions (Qiagen). Reverse transcription (RT) was performed using MMLV superscript reverse transcriptase (Invitrogen) and random hexamers (Operon) and all Taqman-qPCR reactions were performed using the Chromo4 Real-Time PCR Detector (BioRad) as described. Expression level of the gene-of-interest was normalised to the geometric mean of three endogenous housekeeping genes (Primer Design) as described. […]

PDE5 Cat = target: T1, PDE5 Cat (Homo sapiens, UniProt O76074); test: IMAP PDE activity assay (Scottish Biomedical); type: biochemical; conditions: PDE5 Cat (catalytic domain)
T1 construct: using full length PDE5 versus the catalytic domain used in our assays; Scottish Biomedical (contract laboratory)

R6/2 mice [3] = test: T2-MRI brain volumetry; type: in vivo, mouse; conditions: chronic administration, 13 weeks
Experimental: MRI analysis was performed for all mice at the age of 13 weeks in a horizontal 7T magnet with bore size 160 mm (Magnex Scientific Ltd., Oxford, UK) equipped with Magnex gradient set (max. gradient strength 400 mT/m, bore 100 mm) interfaced to a Varian DirectDrive console (Varian, Inc., Palo Alto, CA) using a volume coil for transmission and surface phased array coil for receiving (Rapid Biomedical GmbH, Rimpar, Germany). Isoflurane -anesthetized mice were fixed to a head holder and positioned in the magnet bore in a standard orientation relative to gradient coils. Rectal temperature (TC-1000 Temperature Controller, CWE Inc., Ardmore, PA, USA) and respiration (ECG Trigger Unit, Rapid Biomedical GmbH) were monitored throughout the study and the body temperature was kept at 36-37°C. […]
as §1, with “Statistical analysis was performed using StatsDirect statistical software.” left out

[4] = tested on: site 2 of the Na2+-channel; test: Cerep diversity panel screen at 10 µM; type: binding
Experimental: (§2) Studies were conducted at Cerep (France)

[5] = target: T2, human choline transporter (Homo sapiens, UniProt Q9GZV3); test: Cerep diversity panel screen at 10 µM; type: binding
T2 construct: Cerep (contract laboratory)
T2 sequence (Q9GZV3 whole entry): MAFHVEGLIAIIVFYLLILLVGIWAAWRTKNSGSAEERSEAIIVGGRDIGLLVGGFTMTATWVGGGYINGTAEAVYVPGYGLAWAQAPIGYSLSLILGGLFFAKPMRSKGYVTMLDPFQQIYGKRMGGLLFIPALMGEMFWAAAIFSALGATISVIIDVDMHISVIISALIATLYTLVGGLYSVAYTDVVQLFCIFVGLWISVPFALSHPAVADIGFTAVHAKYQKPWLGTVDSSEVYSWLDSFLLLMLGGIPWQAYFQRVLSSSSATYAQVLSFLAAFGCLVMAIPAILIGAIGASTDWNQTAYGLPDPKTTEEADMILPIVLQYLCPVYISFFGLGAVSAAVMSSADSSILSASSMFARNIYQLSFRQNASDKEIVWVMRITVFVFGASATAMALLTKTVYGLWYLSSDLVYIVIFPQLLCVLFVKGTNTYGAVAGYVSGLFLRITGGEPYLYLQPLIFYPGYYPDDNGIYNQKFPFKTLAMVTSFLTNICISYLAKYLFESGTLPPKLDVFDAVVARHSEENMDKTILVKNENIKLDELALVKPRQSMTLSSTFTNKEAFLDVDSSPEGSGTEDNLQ
Experimental: as §2

NK3 receptor = target: T3, NK3 receptor (Homo sapiens, UniProt P29371); test: Cerep diversity panel screen at 10 µM; type: binding
T3 construct: Cerep (contract laboratory)
T3 sequence (P29371 whole entry, species assumed): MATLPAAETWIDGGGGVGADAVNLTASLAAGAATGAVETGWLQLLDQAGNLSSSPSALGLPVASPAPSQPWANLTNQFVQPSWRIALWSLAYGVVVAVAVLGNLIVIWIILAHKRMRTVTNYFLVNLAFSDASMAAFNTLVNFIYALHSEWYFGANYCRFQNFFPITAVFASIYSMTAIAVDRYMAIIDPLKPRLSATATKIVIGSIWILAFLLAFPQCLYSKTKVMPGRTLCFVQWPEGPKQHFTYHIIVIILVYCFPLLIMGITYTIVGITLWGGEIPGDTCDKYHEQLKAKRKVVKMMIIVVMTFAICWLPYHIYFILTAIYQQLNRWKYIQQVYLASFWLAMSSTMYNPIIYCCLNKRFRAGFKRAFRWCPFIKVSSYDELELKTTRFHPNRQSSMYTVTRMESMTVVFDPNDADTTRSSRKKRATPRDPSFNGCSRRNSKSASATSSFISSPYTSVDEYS
Experimental: as §2

α2-adrenergic receptor = test: Cerep diversity panel screen at 10 µM; type: binding
Experimental: as §2

R6/2 mice [6] = test: Acute and subchronic (2 weeks) tolerability evaluation in R6/2 mice; type: in vivo; conditions: R6/2 mice starting at 6 weeks of age, all doses administered
Source text: Prior to chronic dosing, we conducted an acute and subchronic (2 weeks) tolerability evaluation in R6/2 mice starting at 6 weeks of age (studies conducted at Psychogenics, USA; see Supplementary Report 1 for full details).

Question: Which “effect on R6/2 disease progression / disease-related phenotypes” value (R6/2 mice [1]) does the source give for `CN1C(=O)c2nc(Cc3ccc(C(F)(F)F)cc3)[nH]c2N2C1=N[C@H]1CCC[C@H]12` [SCH-51866, (+)-cis-5,6a,7,8,9,9a-hexahydro-2-[4-[trifluro-methyl]phenylmethyl]-5-methyl-cylopent[4,5]imidazo [2,1-b]purin-4(3H)one] here?
Answer: did not ameliorate disease progression; also recorded: did not modify any R6/2 disease-related phenotypes

Question: What about the IC50 (PDE9) of the same compound?
Answer: 44000 nM

Question: And the “aggregate load in the cortex and hippocampus (Seprion ligand ELISA)” value (aggregated HTT)?
Answer: no effect

Question: And the IC50 (PDE2)?
Answer: 2000 nM

Question: And the IC50 (PDE5)?
Answer: 60 nM

Question: And the “Generalized Wilcoxon (Peto-Prentice) Test, Chi-square for equiv. of death rates p” value (R6/2 mice [2]; 10 mg/kg (p.o., BID) column)?
Answer: Chi-square for equiv. of death rates p=0.543

Question: What about the “Log-rank (Peto) Test, Chi-square for equiv. of death rates p” value (R6/2 mice [2]; 10 mg/kg (p.o., BID) column) of the same compound?
Answer: 0.555

Question: And the “Mean (±SEM) Survival Time” value (R6/2 mice [2]; 10 mg/kg (p.o., BID))?
Answer: 115 (±7) days

Question: And the “Medial Survival Time” value (R6/2 mice [2]; 10 mg/kg (p.o., BID))?
Answer: 110 days

Question: And the “Generalized Wilcoxon (Peto-Prentice) Test, Chi-square for equiv. of death rates p” value (R6/2 mice [2]; 30 mg/kg (p.o., BID) column)?
Answer: Chi-square for equiv. of death rates p=0.543

Question: What about the “Log-rank (Peto) Test, Chi-square for equiv. of death rates p” value (R6/2 mice [2]; 30 mg/kg (p.o., BID) column) of the same compound?
Answer: 0.555

Question: What about the “Mean (±SEM) Survival Time” value (R6/2 mice [2]; 30 mg/kg (p.o., BID)) of the same compound?
Answer: 122 (±5) days

Question: What about the “Medial Survival Time” value (R6/2 mice [2]; 30 mg/kg (p.o., BID)) of the same compound?
Answer: 121 days

Question: And the “Survival, effect in words” value (R6/2 mice [2]; vs R6/2 vehicle-treated animals)?
Answer: no survival benefit

Question: What about the “expression of disease-relevant genes in striatum, cortex and cerebellum” value (disease-relevant genes) of the same compound?
Answer: did not have a statistically significant effect; also recorded: no effects on the dysregulation of these genes

Question: And the IC50 (PDE5 Cat)?
Answer: 2840 nM

Question: What about the “brain volume, cortex (MRI)” value (R6/2 mice [3]) of the same compound?
Answer: no improvement in brain volume

Question: What about the “brain volume, striatum (MRI)” value (R6/2 mice [3]) of the same compound?
Answer: no improvement in brain volume

Question: What about the inhibition [4] of the same compound?
Answer: 66%

Question: What about the inhibition at 10 µM [5] of the same compound?
Answer: 94%

Question: What about the inhibition at 10 µM (NK3 receptor) of the same compound?
Answer: 57%

Question: And the inhibition (α2-adrenergic receptor)?
Answer: 88%

Question: And the tolerability (R6/2 mice [6])?
Answer: well tolerated with no sign of adverse effects
